Measurements: article PMC12169609, “Efficient Crystallization of Apo Sirt2 for Small-Molecule Soaking and Structural Analysis of Ligand Interactions” (Journal of Medicinal Chemistry, 2025)

Tests used:
Sirt2_56–356 [1] = target: T1, Sirt2_56–356 (Homo sapiens, UniProt Q8IXJ6); assay: Fluorescence polarization assay (FPA), displacement of SirReal-TAMRA probe; type: binding; settings: for FP-Assay Inhibition (%) at 125 µM / inhibition at 125 µM: 125 µM compound; for FP-Assay Inhibition (%) at 500 µM / inhibition at 500 µM: 500 µM compound; for FP-Assay Inhibition (%) at 2000 µM / inhibition at 2000 µM: 2000 µM compound; for IC50: 200 nM Sirt2, 40 nM SirReal-TAMRA, 5% DMSO; for inhibition at 125 µM: read-out: FP-Assay Inhibition (%) at 125 µM; for inhibition at 500 µM: read-out: FP-Assay Inhibition (%) at 500 µM; for inhibition at 2000 µM: read-out: FP-Assay Inhibition (%) at 2000 µM
T1 construct: human strep-tagged Sirt2_56–356 was expressed and purified; strep-tag; made in house
T1 sequence (Q8IXJ6 56-356): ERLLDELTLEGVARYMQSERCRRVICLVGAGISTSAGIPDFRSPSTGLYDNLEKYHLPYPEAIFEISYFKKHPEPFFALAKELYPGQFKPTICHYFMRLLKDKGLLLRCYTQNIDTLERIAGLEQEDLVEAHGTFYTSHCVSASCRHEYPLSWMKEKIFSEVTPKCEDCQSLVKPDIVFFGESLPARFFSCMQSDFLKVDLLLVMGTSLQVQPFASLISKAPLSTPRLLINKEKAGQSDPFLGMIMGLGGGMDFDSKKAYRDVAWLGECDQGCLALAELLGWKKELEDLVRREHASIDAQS
Procedure: Blank controls contained 19 μL of assay buffer and 1 μL DMSO. Negative controls (P neg) used 1 μL Mz242 (20 μM final concentration), while positive controls (Ppos) replaced the inhibitor with 1 μL DMSO. […] Fluorescence intensities were measured with an EnVision plate reader (PerkinElmer, optical module – BODIPY TMR FP, excitation filter – FP 531 nm, emission filter 1 – FP p-pol 595 nm, emission filter 2 – FP s-pol 595 nm). Inhibition was calculated using the equation reported below (P I, P neg, and P pos are FP values of samples, […], respectively). I=100×(1−(PI−Pneg/Ppos−Pneg))%

Sirt2_56–356 [2] = target: T1, Sirt2_56–356; assay: Fluorescence thermal shift assay (DSF); type: binding; settings: 6.0 μM Sirt2; for FTS-Assay Thermal shift at 1000 µM / ΔTm at 1000 µM: 1000 µM compound; for ΔTm at 1000 µM: read-out: FTS-Assay Thermal shift at 1000 µM
Procedure: Fluorescence thermal shift assays were performed in white 96-well plates (Hard-Shell PCR Plates, BioRad, USA) with a total volume of 20 μL and a final DMSO concentration of 5% (v/v), following a published protocol. ,
Melting temperatures were determined using GraphPad Prism, following a published procedure.

Sirt2 = settings: published Sirt2 inhibitors; no assay or reference printed at the place; cited from earlier work
[3] = Precipitation observed in the FP assay IC50 determination; type: physicochemical; settings: FP assay buffer, 5% DMSO
Excerpt: Figure S3: (A) Superimposition of Sirt2 apo (salmon, PDB 9FDR) with Sirt2-Mz242 (Sirt2 = yellow-orange, Mz242 = yellow, PDB 8OWZ).4 All amino acids that are involved in the formation of the selectivity pocket align very well. However, Phe96 and Arg97 from the cofactor binding loop show a different orientation, resulting from the presence or absence of Mz242. (B) Superimposition of Sirt2-KT9 (Sirt2 = wheat, KT9 = firebrick, PDB 9FDX) with NAD+ (gray) from PDB 4RMG. In the presented KT9 orientation, the close distance of the amide C=O of KT9 and the ribose moiety of NAD+ (highlighted as black circle) would result in steric clashes that prevent simultaneous binding.
Figure S4: IC50 curves of compounds 1-3 in a previously reported Sirt2 binding assay based on fluorescence polarization.5 At concentrations exceeding 1000 µM, 1 started to precipitate, thus limiting the maximum inhibition to 70%. […]

Row | Structure (SMILES) | FP-Assay Inhibition (%) at 125 µM (Sirt2_56–356 [1]) [%] | FP-Assay Inhibition (%) at 500 µM (Sirt2_56–356 [1]) [%] | FP-Assay Inhibition (%) at 2000 µM (Sirt2_56–356 [1]) [%] | FTS-Assay Thermal shift at 1000 µM (Sirt2_56–356 [2]) [°C] | FTS-Assay Thermal shift at 2000 µM (Sirt2_56–356 [2]; 2000 µM compound) [°C] | further results
1 | Clc1ccc2ncccc2c1 [No. 15] | 6.3 ± 7.4 | 36.2 ± 6.5 | 87.3 ± 6.8 | 0.7 | 0.2 | –
2 | CCOC(=O)Cc1ccc(OC)cc1 [No. 16] | 23.1 ± 3.9 | 50.5 ± 5.4 | – | 0.5 | 0.4 | –
3 | CCOC(=O)Cc1cccc(Cl)c1 [No. 17] | 24.7 ± 4.0 | 63.8 ± 2.4 | 99.7 ± 4.6 | 0.9 | 0.9 | –
4 | Cc1ccc(=O)n(Cc2ccc(Cl)cc2)n1 [No. 18] | 11.3 ± 3.2 | 41.9 ± 7.0 | 90.8 ± 2.8 | 1.3 | 0.1 | –
5 | CC1(C)CC(=O)c2c(SCCO)sc(C#N)c2C1 [No. 19] | 8.2 ± 4.9 | 40.9 ± 5.6 | 91.5 ± 1.7 | – | – | –
6 | Nc1nc(-c2ccc(F)c(F)c2)cs1 [No. 20] | -0.9 ± 6.3 | 38.8 ± 4.6 | 91.3 ± 3.2 | – | 0.0 | –
7 | CCOC(=O)c1cccc(-c2nccs2)c1 [No. 21] | 41.8 ± 5.9 | 91.4 ± 2.5 | 97.0 ± 6.2 | 0.9 | – | –
8 | CC(=O)c1c(O)cccc1OCCC(C)C [No. 22] | 57.6 ± 7.3 | 74.2 ± 4.2 | 56.5 ± 2.8 | 1.9 | 1.6 | –
10 | NC(=S)c1ccc(OCC(F)(F)F)nc1 [compound 1] | – | – | – | – | – | IC50 (Sirt2_56–356 [1]): 286 ± 10 µM; inhibition at 125 µM (Sirt2_56–356 [1]): 26.5 ± 5.8%; inhibition at 500 µM (Sirt2_56–356 [1]): 55.4 ± 4.3%; inhibition at 2000 µM (Sirt2_56–356 [1]): 74.2 ± 3.1%; concentration above which compound started to precipitate [3]: exceeding 1000 µM; ΔTm at 1000 µM (Sirt2_56–356 [2]): 0.3 °C; ΔTm at 2000 µM (Sirt2_56–356 [2]; 2000 µM compound, read-out: FTS-Assay Thermal shift at 2000 µM): 0.6 °C
11 | O=C(NCc1ccccn1)c1cccc(Cl)c1 [compound 3] | – | – | – | – | – | IC50 (Sirt2_56–356 [1]): 565 ± 95 µM; inhibition at 125 µM (Sirt2_56–356 [1]): 15.1 ± 7.7%; inhibition at 500 µM (Sirt2_56–356 [1]): 46.9 ± 9.3%; inhibition at 2000 µM (Sirt2_56–356 [1]): 94.8 ± 3.4%; ΔTm at 1000 µM (Sirt2_56–356 [2]): 0.5 °C
